In brackets after ≈: the same amount, converted by molar mass.
Tests used:
E. faecium ATCC51559 MDR = assay: MIC by standard micro dilution method (NCCLS M7-A5); assay type: cell-based; conditions: Enterococcus faecium, Mueller-Hinton medium (cation-adjusted), 16-24 h at 35° C., read-out: MIC, microorganism (3) E. faecium ATCC51559 MDR
S. aureus LNZ-R 432 = assay: as above; assay type: cell-based; conditions: Staphylococcus aureus, LNZR432; linezolid-resistant strain; Mueller-Hinton medium, 16-24 h at 35° C.; read-out: MIC, microorganism (4) S. aureus LNZ-R 432
[1] = system: Moraxella, Pasteurella and Bacteroides spp.; conditions: background art; cited from earlier work
E. faecium LNZ-R LR-4 = assay: MIC by standard micro dilution method (NCCLS M7-A5); assay type: cell-based; conditions: Enterococcus faecium; linezolid-resistant strain; Mueller-Hinton medium, 16-24 h at 35° C.; read-out: MIC, microorganism (9) E. faecium LNZ-R LR-4
[2] = system: other Gram-negative bacteria; conditions: background art; cited from earlier work
S. haemolyticus = assay: MIC by standard micro dilution method (NCCLS M7-A5); assay type: cell-based; conditions: Staphylococcus haemolyticus; Mueller-Hinton medium (cation-adjusted), 16-24 h at 35° C.; read-out: MIC, microorganism (5) S. haemolyticus
H. influenzae ATCC49247 = assay: as above; assay type: cell-based; conditions: Haemophilus influenzae, read-out: MIC, microorganism (6) H. influenzae ATCC49247
[3] = system: S. pneumoniae ATCC49619 PR; assay: as above; assay type: cell-based; conditions: Streptococcus pneumoniae, 20-24 h at 35° C., 5% CO2, read-out: MIC, microorganism (2) S. pneumoniae ATCC49619 PR
S. aureus ATCC25923 MS = assay: as above; assay type: cell-based; conditions: Staphylococcus aureus, Mueller-Hinton medium (cation-adjusted), 16-24 h at 35° C., read-out: MIC, microorganism (1) S. aureus ATCC25923 MS
[4] = system: B. fragilis sp. fragilis ATCC25285; assay: as above; assay type: cell-based; conditions: Bacteroides fragilis, anaerobic strain, Brucella Blood medium supplemented, read-out: MIC, microorganism (7) B. fragilis sp. fragilis ATCC25285
M. catarrhalis HCI-78 = assay: as above; assay type: cell-based; conditions: Moraxella catarrhalis, HCI78; 20-24 h at 35° C., 5% CO2; read-out: MIC, microorganism (8) M. catarrhalis HCI-78

SMILES	MIC (E. faecium ATCC51559 MDR) [µg/mL]	MIC (S. aureus LNZ-R 432) [µg/mL]	MIC (E. faecium LNZ-R LR-4) [µg/mL]	MIC (H. influenzae ATCC49247) [µg/mL]	MIC [3] [µg/mL]	MIC (S. aureus ATCC25923 MS) [µg/mL]	MIC [4] [µg/mL]	MIC (M. catarrhalis HCI-78) [µg/mL]	MICS for Moraxella, Pasteurella and Bacteroides spp. [1] [µg/mL]	susceptibility of other Gram-negative bacteria [2]	MIC (S. haemolyticus) [µg/mL]
CC(=O)NC[C@H]1CN(c2ccc(N3CCOCC3)c(F)c2)C(=O)O1 [Linezolid, N-[[(5S)-3-[3-fluoro-4-(4-morpholinyl)phenyl]-2-oxo-5-oxazolidinyl]methyl]acetamide, reference compound]	0.5 (≈ 1.48 µM)	16 to 32 (≈ 47.4 to 94.9 µM)	64 (≈ 190 µM)	16 (≈ 47.4 µM)	1 (≈ 2.96 µM)	1 (≈ 2.96 µM)	2 (≈ 5.93 µM)	2 (≈ 5.93 µM)	2 to 8	resistant	128 (≈ 379 µM)
CC(=O)NC[C@H]1CN(c2ccc(N3CCC(n4ccnn4)C3)c(F)c2)C(=O)O1 (stereo partly drawn) [Ex. 3, N-((5S)-3-{3-fluoro-4-[3-(1-triazolyl)pyrrolidin-1-yl]-phenyl}-2-oxo-5-oxazolidinylmethyl)acetamide]	0.5 (≈ 1.29 µM)	16 (≈ 41.2 µM)	8 (≈ 20.6 µM)	4 (≈ 10.3 µM)	1 (≈ 2.57 µM)	1 (≈ 2.57 µM)	1 (≈ 2.57 µM)	1 (≈ 2.57 µM)			4 (≈ 10.3 µM)
CC(=O)NC[C@H]1CN(c2ccc(N3CCC(n4ccc(C(F)(F)F)n4)C3)c(F)c2)C(=O)O1 (stereo partly drawn) [Ex. 26, N-((5S)-3-{3-fluoro-4-[3-(3-trifluoromethyl-pyrazol-1-yl)pyrrolidin-1-yl]-phenyl}-2-oxo-5-oxazolidinylmethyl)acetamide]	1 (≈ 2.2 µM)	16 (≈ 35.1 µM)	2 (≈ 4.39 µM)	1 (≈ 2.2 µM)	0.5 (≈ 1.1 µM)	2 (≈ 4.39 µM)	1 (≈ 2.2 µM)	2 (≈ 4.39 µM)			1 (≈ 2.2 µM)
CC(=O)NC[C@H]1CN(c2ccc(N3CCC(n4cc(Br)cn4)C3)c(F)c2)C(=O)O1 (stereo partly drawn) [Ex. 17, N-((5S)-3-{3-fluoro-4-[3-(4-bromopyrazol-1-yl)pyrrolidin-1-yl]-phenyl}-2-oxo-5-oxazolidinylmethyl)acetamide]	0.5 (≈ 1.07 µM)	8 (≈ 17.2 µM)	1 (≈ 2.14 µM)	1 (≈ 2.14 µM)	0.25 (≈ 0.536 µM)	1 (≈ 2.14 µM)	0.5 (≈ 1.07 µM)	2 (≈ 4.29 µM)			1 (≈ 2.14 µM)
CC(=O)NC[C@H]1CN(c2ccc(N3CCC(n4cc([N+](=O)[O-])cn4)C3)c(F)c2)C(=O)O1 (stereo partly drawn) [Ex. 9, N-((5S)-3-{3-fluoro-4-[3-(4-nitropyrazol)pyrrolidinyl]-phenyl}-2-oxo-5-oxazolidinylmethyl)acetamide]	1 (≈ 2.31 µM)	8 (≈ 18.5 µM)	4 (≈ 9.25 µM)	2 (≈ 4.63 µM)	0.25 (≈ 0.578 µM)	1 (≈ 2.31 µM)	0.5 (≈ 1.16 µM)	1 (≈ 2.31 µM)			1 (≈ 2.31 µM)
CC(=O)NC[C@H]1CN(c2ccc(N3CCC(n4nnc(-c5cccs5)n4)C3)c(F)c2)C(=O)O1 (stereo partly drawn) [Ex. 15, N-((5S)-3-{3-fluoro-4-[3-(5-thiophen-2-yl-tetrazol-2-yl)pyrrolidin-1-yl]-phenyl}-2-oxo-5-oxazolidinylmethyl)acetamide]	0.25 (≈ 0.53 µM)	4 (≈ 8.48 µM)	8 (≈ 17 µM)	8 (≈ 17 µM)	0.125 (≈ 0.265 µM)	0.5 (≈ 1.06 µM)	0.5 (≈ 1.06 µM)	2 (≈ 4.24 µM)			

The next lines start with results.

MIC (E. faecium ATCC51559 MDR) [µg/mL]	MIC (S. aureus LNZ-R 432) [µg/mL]	MIC (E. faecium LNZ-R LR-4) [µg/mL]	MIC (H. influenzae ATCC49247) [µg/mL]	MIC [3] [µg/mL]	MIC (S. aureus ATCC25923 MS) [µg/mL]	MIC [4] [µg/mL]	MIC (M. catarrhalis HCI-78) [µg/mL]	SMILES	MICS for Moraxella, Pasteurella and Bacteroides spp. [1] [µg/mL]	susceptibility of other Gram-negative bacteria [2]	MIC (S. haemolyticus) [µg/mL]
0.25 (≈ 0.492 µM)	2 (≈ 3.93 µM)	64 (≈ 126 µM)	4 (≈ 7.87 µM)	0.125 (≈ 0.246 µM)	0.5 (≈ 0.983 µM)	1 (≈ 1.97 µM)	1 (≈ 1.97 µM)	CC(=O)NC[C@H]1CN(c2ccc(N3CCC(n4cc(-c5ccc([N+](=O)[O-])cc5)cn4)C3)c(F)c2)C(=O)O1 (stereo partly drawn) [Ex. 19, N-[(5S)-3-(3-fluoro-4-{3-[4-(4-nitrophenyl)-pyrazol-1-yl]pyrrolidin-1-yl}-phenyl)-2-oxo-5-oxazolidinylmethyl]acetamide]			
0.25 (≈ 0.537 µM)	2 (≈ 4.3 µM)	8 (≈ 17.2 µM)	4 (≈ 8.59 µM)	0.125 (≈ 0.269 µM)	0.5 (≈ 1.07 µM)	0.5 (≈ 1.07 µM)	0.5 (≈ 1.07 µM)	CC(=O)NC[C@H]1CN(c2ccc(N3CCC(n4cc(-c5ccncn5)cn4)C3)c(F)c2)C(=O)O1 (stereo partly drawn) [Ex. 11, N-((5S)-3-{3-fluoro-4-[3-(4-pyrimidin-4-yl-pyrazol-1-yl)pyrrolidin-1-yl]-phenyl}-2-oxo-5-oxazolidinylmethyl)acetamide]			
0.25 (≈ 0.538 µM)	2 (≈ 4.31 µM)	8 (≈ 17.2 µM)	4 (≈ 8.61 µM)	0.06 (≈ 0.129 µM)	0.5 (≈ 1.08 µM)	0.25 (≈ 0.538 µM)	0.5 (≈ 1.08 µM)	CC(=O)NC[C@H]1CN(c2ccc(N3CCC(n4cc(-c5ccncc5)cn4)C3)c(F)c2)C(=O)O1 (stereo partly drawn) [Ex. 18, N-((5S)-3-{3-fluoro-4-[3-(4-pyridin-4-yl-pyrazol-1-yl)pyrrolidin-1-yl]-phenyl}-2-oxo-5-oxazolidinylmethyl)acetamide]			
